Data: US9023795B2, “Angiogenesis-inhibiting peptide and application thereof” (Shanghai First People's Hospital, priority 2010, dated 2015)

How the values were obtained:
[1] = test system: Human Umbilical Vein Endothelial Cells (HUVECs); experiment: Proliferation of primary HUVECs, MTS method; type: cell-based; details: VEGF + ZY1, even at low concentration (1 μg/μl), 24 hours incubation
Method: The MTS method was used as follows:
Human Umbilical Vein Endothelial Cells (HUVECs) (purchased from ScienCell Co.) were inoculated onto a 96-well plate with an inoculation concentration of 4×10^4/ml. After cells had adhered to the wall, serum-free culture medium of ECM were added and the cells were cultivated at 37° C. for 24 hours. Then the serum-free culture medium ECM was added into each well in negative control group. VEGF (10 ng/ml) (purchased from Sigma Co.) in positive control group, VEGF (10 ng/well) ZY1 small peptide having different concentrations (1 μg/μl, 10 μg/μl, 25 μg/μl, 50 μg/μl) in treatment group were added as well. After 24 hours incubation, 20 μl MTS solution (purchased from Promega Corporation) was added in each well. After incubation at 37° C. for 4 hours, the absorbance at 490 nm for each well was measured by using Enzyme-linked Immunoassay Analysis (Bio-Rad Co.). The proliferation activity of cells was determined according to OD490. Finally, SPSS11.0.1 was used for statistical analysis.
Derived Polypeptides were prepared as follows, and the inhibition effect on proliferation of Human Umbilical Vein Endothelial Cells HUVECs was determined according to the methods in Example 6.

[2] = test system: pathological angiogenesis in the mouse cornea; experiment: Corneal stroma micropocket model, VEGF-induced pathological angiogenesis in the mouse cornea; type: in vivo, C57BL/6 mice; details: 5 days after operation, compared with VEGF group
Method: Model of the corneal stroma micropocket was used and the methods were as follows:
Male C57BL/6 mice (aged 4-5 weeks) were intraperitoneally injected with 2% pentobarbital (about 0.1 ml/PCS) for anesthesia. 4% hydrochloric oxybuprocaine ophthalmic solution was locally administrated. Under the stereo microscope, OT syringe needle and 2 ml syringe needle was used to perform a blunt dissection between the layers of corneal stroma at 0.8-1 mm from corneoscleral limbus. A pouch of about 0.6×0.8 mm was formed. Slow-release tablets (mixture of 1:1 (v/v) of 12% poly Hydroxyethyl methacrylate (polyHEMA): sucralfate) were planted respectively into the micropocket, including negative control group (blank tablet), positive control group (VEGF group: 320 ng/μl, 160 ng/tablet), and treatment group (VEGF+ZY1 small peptides of 1 μg/tablet low concentration, 5 μg/tablet moderate concentration, or 10 μg/tablet high concentration). 5 days after operation, the length of the longest new vessel (VL is the length of the longest new blood vessel grown from limbus to the cornea), and the clock hours of corneal neovascularization (CN represents the accumulative clock hours of corneal neovascularization) were observed. Neovascularization area were calculated as followed: Area (mm^2)=0.5*3.14*VL (mm)*CN*0.4 (mm). […] was used for statistical analysis.

[3] = test system: Human Umbilical Vein Endothelial Cells (HUVECs); experiment: Chemotaxis of primary HUVECs, Transwell Chamber method; type: cell-based; details: ZY1 10, 25, 50 μg/μl in upper chamber, VEGF (50 ng/ml) in lower chamber, 24 hours
Method: The Transwell Chamber method was used as follows:
HUVECs (purchased from ScienCell Co.) were inoculated onto the upper chamber of Transwell chambers with an inoculation concentration of 6×10^5/ml. Serum-free culture medium of ECM or ZY1 small peptide having different concentrations (10 μg/μl, 25 μg/μl, 50 μg/μl) were added into individual upper chambers. VEGF (50 ng/ml) (purchased from Sigma Co.) was added/not added into the lower chamber as a chemotactic factor. After incubation at 37° C. for 24 hours, the cells on upper surface of Transwell Chamber membrane were wiped and the membrane was washed with PBS. Then the membrane was fixed in 4% paraformaldehyde solution and the lower surface of membrane was stained with hematoxylin, cut and then sections were prepared. Five fields on the chamber membrane under the optical microscope (Magnification was 400 fold) were randomly taken for photograph and the number of cells nucleus was counted. The chemotaxis was determined according to the number of cells nucleus on the lower surface of chamber membrane. Finally, SPSS11.0.1 was used for statistical analysis.

[4] = test system: Human Umbilical Vein Endothelial Cells (HUVECs); experiment: Lumen formation of primary HUVECs, Matrigel method; type: cell-based; details: ZY1 at different concentrations (1, 10, 25, 50 μg/μl), VEGF 50 ng/ml, 6 hours of treatment
Method: The Matrigel method was used as follows:
A 50 μl/well Matrigel (purchased from BD Co.) was added into a 96-well plate before incubation at 37° C. for 30 min. After solidified, the primary HUVECs were inoculated onto the surface of the Matrigel with an inoculation concentration of 8×10^6/ml. Serum-free culture medium of ECM in negative control group, VEGF (50 ng/ml) (purchased from Sigma Co.) in positive control group, and ZY1 small peptide having different concentrations (1 μg/μl, 10 μg/μl, 25 μg/μl, 50 μg/μl) in treatment group were added into the wells. The incubation was continued at 37° C. Photos were taken for the 3 randomized fields of cells in the plate under the microscope (Magnification was 200 fold.) after 6 hours of treatment and the number of formed lumina was counted. Finally, SPSS11.0.1 was used for statistical analysis.

[5] = test system: Human Umbilical Vein Endothelial Cells (HUVECs); experiment: Migration of primary HUVECs, Wound Healing method; type: cell-based; details: VEGF (10 ng/ml) + ZY1 1, 10, 25, 50 μg/μl, 6 hours
Method: The Wound Healing method was used as follows:
Primary Human Umbilical Vein Endothelial Cells (HUVECs) (purchased from ScienCell Co.) were inoculated onto a 12-well plate with an inoculation concentration of 1×10^5/ml. After cells had adhered to the wall and grown to 80%-90% of confluence, serum-free culture medium of ECM were added before cultivation at 37° C. for 24 hours. A “+” scratch was carved with the tip of a 200 μl pipettor in each well and serum-free culture medium ECM were added in negative control group. VEGF (10 ng/ml) (purchased from Sigma Co.) in positive control group, and VEGF (10 ng/ml)+ZY1 small peptide having different concentrations (1 μg/μl, 10 μg/μl, 25 μg/μl, 50 μg/μl) in treatment group were added as well. The cultivation was continued. Photos were taken for the scratches of the cells in the 12-well plate at 0 hour and 6 hour, respectively. The average width of the scratches was calculated. The migration activity was determined according to the scratch width. Finally, SPSS11.0.1 was used for statistical analysis.

[6] = test system: pathological angiogenesis in the mouse retina; experiment: Retinal angiogenesis in hypoxia-induced mice; type: in vivo, C57BL/6 mice; details: intravitreal, eyeballs removed 5 days later, P<0.01
Method: Model of retinal angiogenesis in hypoxia-induced mice was used and the methods were as follows:
Seven days after birth, C57BL/6 mice were placed together with their breast feeding mother into an environment having a 75%±2% oxygen concentration. The mice were taken out 5 days later, and were injected intravitreally with […] ZY1 small peptides of low concentration (500 ng/μl), moderate concentration (1 μg/μl), high concentration (2 μg/μl) or control sample PBS. Mice were placed in an environment having normal air for further feeding, thereby forming the mice model of retinopathy induced by hypoxia. The eyeballs were removed 5 days later, fixed in 4% paraformaldehyde, embedded in paraffin, cut into sections, and stained with HE. The amount of the nucleus of the vascular endothelial cells in retina was counted under the optical microscope (Magnification was 200 fold). SPSS11.0.1 was used for statistical analysis.

“CVSLLRCTGCC GDENLHCVPV (CVSLLRCTGCCGDENLHCVPV; angiogenesis-inhibiting peptide ZY1)” was tested, and the “inhibition of proliferation of HUVECs (OD490)” value [1] was “significantly inhibited”, the “inhibition of corneal angiogenesis (neovascularization area)” value ([2]; high concentration (10 μg/tablet) + VEGF 160 ng/tablet) was “significantly inhibited” and the “inhibition of corneal angiogenesis (neovascularization area)” value ([2]; moderate concentration (5 μg/tablet) + VEGF 160 ng/tablet) was “significantly inhibited”. The “inhibition of chemotaxis of HUVECs (number of cell nuclei on lower surface of chamber membrane)” value [3] was “significant inhibition effect”, the “inhibition of lumen formation of primary HUVECs (number of formed lumina)” value [4] was “significant inhibition effect” and the “inhibition of migration of primary HUVECs (scratch width)” value [5] was “significantly inhibited”. For the same sequence, the “inhibition of pathological angiogenesis in mouse retina (amount of nucleus of vascular endothelial cells)” value ([6]; high concentration (2 μg/μl)) was “significantly inhibited” and the “inhibition of pathological angiogenesis in mouse retina (amount of nucleus of vascular endothelial cells)” value ([6]; moderate concentration (1 μg/μl)) was “significantly inhibited”.
